A value given as a limit tells only on which side of the number the result lay.

One experiment concerns H460. The experiment can be described thus: Cellular H460 viability assay (CellTiter-Glo, 72 hours). The experiment is classed as cell-based. The conditions noted are these: Homo sapiens, NCI-H460. Put shortly:
(§1)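 Steps: seed cells at per-line density; add compound, DMSO vehicle kept under 0.1% final; incubate 72 h, 37 °C, 5% CO2; lyse with CellTiter-Glo and read luminescence; run in duplicate.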

For a further experiment, the system named is A2780. The experiment can be described thus: Cellular A2780 viability assay (CellTiter-Glo, 72 hours). The experiment is classed as cell-based. The conditions noted are these: Homo sapiens. The method in brief: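 Cells seeded at 1×10^4/well (MM.1S), 5×10^3 (OVCAR-3) or 1×10^3 (A2780), grown in RPMI-1640 with 10% FBS. After 24 h, compound added at 0.0015–10 uM, final DMSO below 0.1%, for 72 h at 37° C. Viability read by CellTiter-Glo luminescence in duplicate, with curve fitting.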
In general terms: Cellular ATP, detected with luciferase, serves as a proxy for viable cell number.

The next experiment has as its target T1, CDK2/Cyclin A (Homo sapiens, UniProt P24941).
T1 construct: purchased Invitrogen PV6290
The experiment can be described thus: Enzymatic assay for CDK2 (FRET based LANCE Ultra kinase assay). The experiment is classed as biochemical. Conditions: read-out: CDK2 enzymatic activity (IC50 range). The method in brief:
(§2)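 TR-FRET (LANCE Ultra) kinase assay at ATP Km, ULight-MBP peptide substrate (68 nM), 8-dose 4-fold compound series in DMSO. Enzymes: […]; 60 min at 23° C., stopped with EDTA plus Eu-anti-phospho-MBP antibody, read 665/615 nm after 60 min.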
A general note: In TR-FRET formats the signal depends on donor and acceptor labels being close together.

A further experiment deals with T2, CDK5/p25 (Homo sapiens, UniProt Q00535).
T2 construct: purchased Invitrogen PR8543B
T2 sequence (Q00535 whole entry): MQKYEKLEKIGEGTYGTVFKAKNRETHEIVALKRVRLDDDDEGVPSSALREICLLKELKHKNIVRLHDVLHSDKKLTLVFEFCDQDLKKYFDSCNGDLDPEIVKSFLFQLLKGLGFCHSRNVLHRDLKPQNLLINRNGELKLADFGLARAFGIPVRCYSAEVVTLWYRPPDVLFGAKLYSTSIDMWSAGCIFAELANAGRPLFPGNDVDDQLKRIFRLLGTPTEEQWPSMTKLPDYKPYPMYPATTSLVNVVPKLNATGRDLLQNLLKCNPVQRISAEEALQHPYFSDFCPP
T2 sequence (Q15078 99-307 partner limits assumed): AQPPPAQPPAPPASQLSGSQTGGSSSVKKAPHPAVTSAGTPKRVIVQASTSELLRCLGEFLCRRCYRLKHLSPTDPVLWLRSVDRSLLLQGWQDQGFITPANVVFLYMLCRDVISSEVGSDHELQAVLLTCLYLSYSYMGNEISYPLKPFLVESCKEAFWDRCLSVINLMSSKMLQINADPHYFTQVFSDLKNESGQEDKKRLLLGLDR
The experiment can be described thus: Enzymatic assay for CDK5 (FRET based LANCE Ultra kinase assay). Conditions: read-out: CDK5 enzymatic activity (IC50 range). It is filed as biochemical. The method in brief:
as §2

The next experiment deals with MV4-11. Briefly: Cellular MV4-11 viability assay (CellTiter-Glo, 72 hours). It is filed as cell-based. Conditions: Homo sapiens. The method in brief:
as §1

Another experiment has as its target T3, CDK1/Cyclin B (Homo sapiens, UniProt P06493).
T3 construct: purchased Invitrogen PR4768C
Briefly: Enzymatic assay for CDK1 (FRET based LANCE Ultra kinase assay). It is filed as biochemical. Conditions: read-out: CDK1 enzymatic activity (IC50 range). The method in brief:
as §2

In the next experiment the target is T4, CDK7/Cyclin H/MNAT1 (Homo sapiens, UniProt P50613).
T4 construct: purchased Invitrogen PR6749B
T4 sequence (P50613 whole entry): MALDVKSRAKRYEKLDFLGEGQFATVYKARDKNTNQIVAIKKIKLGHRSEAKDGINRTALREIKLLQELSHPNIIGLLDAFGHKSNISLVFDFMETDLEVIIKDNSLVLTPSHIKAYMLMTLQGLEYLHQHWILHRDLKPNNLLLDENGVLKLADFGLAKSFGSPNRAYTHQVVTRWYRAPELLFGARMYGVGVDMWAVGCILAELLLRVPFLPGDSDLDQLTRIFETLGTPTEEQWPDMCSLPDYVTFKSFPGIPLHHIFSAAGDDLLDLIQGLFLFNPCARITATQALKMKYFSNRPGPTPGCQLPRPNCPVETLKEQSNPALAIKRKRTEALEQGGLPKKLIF
T4 sequence (P51946 whole entry partner): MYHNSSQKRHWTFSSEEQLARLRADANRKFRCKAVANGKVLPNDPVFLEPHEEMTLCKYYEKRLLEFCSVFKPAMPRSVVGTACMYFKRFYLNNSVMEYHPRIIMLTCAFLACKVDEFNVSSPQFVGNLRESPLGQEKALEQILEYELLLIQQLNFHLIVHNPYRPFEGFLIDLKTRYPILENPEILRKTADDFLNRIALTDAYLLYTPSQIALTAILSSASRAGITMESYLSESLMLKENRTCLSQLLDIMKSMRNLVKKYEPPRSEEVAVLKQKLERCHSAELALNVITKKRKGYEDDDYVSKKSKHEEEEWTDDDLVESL
T4 sequence (P51948 whole entry partner): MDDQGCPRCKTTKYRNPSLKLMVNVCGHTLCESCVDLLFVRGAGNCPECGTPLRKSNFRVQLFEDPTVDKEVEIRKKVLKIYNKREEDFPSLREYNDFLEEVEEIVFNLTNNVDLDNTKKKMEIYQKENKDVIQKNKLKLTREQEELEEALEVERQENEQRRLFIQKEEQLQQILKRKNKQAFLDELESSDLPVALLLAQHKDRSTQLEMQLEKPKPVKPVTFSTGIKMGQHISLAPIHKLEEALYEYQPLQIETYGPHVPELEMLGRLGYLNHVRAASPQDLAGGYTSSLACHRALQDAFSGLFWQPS
The experiment can be described thus: Enzymatic assay for CDK7 (FRET based LANCE Ultra kinase assay). It is filed as biochemical. Put shortly: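 LANCE Ultra TR-FRET kinase assay using a ULight-labeled peptide substrate and a Eu-labeled anti-phospho antibody, with ATP at its Km. Purified CDK/cyclin complex was added to compound after brief centrifugation.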

T3 sequence (P06493 whole entry): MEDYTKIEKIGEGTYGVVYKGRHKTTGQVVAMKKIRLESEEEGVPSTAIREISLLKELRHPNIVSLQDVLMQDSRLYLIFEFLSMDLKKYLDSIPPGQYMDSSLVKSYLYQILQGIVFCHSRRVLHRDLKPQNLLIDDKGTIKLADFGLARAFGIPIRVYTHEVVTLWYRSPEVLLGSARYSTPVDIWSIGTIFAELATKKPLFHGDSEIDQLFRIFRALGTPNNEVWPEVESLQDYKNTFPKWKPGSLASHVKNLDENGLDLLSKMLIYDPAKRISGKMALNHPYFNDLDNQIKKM
T3 sequence (P14635 whole entry partner): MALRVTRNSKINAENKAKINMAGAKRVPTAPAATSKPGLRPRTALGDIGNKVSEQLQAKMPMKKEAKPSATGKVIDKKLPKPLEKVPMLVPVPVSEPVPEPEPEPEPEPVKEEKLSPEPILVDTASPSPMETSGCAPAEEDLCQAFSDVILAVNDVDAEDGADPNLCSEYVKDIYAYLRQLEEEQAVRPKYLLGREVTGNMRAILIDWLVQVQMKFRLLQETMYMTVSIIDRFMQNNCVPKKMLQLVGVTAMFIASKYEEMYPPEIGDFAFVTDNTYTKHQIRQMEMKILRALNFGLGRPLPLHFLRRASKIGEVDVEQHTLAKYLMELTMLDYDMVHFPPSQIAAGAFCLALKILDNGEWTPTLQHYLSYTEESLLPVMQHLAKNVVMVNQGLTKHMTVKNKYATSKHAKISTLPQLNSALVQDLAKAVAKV

What is called IC50 is the concentration that gives 50% inhibition. Take `CC(C)c1cnn2c(NCc3c(Cl)cccc3-n3ccc(C(C)(C)O)n3)nc(N3CCC(N)CC3)nc12` [Compound 210]: the half-maximal inhibitory concentration (IC50) in the experiment on H460 is under 1000 nM; in the experiment on A2780 it was at most 1000 nM; at CDK2/Cyclin A, over 1000 nM; on CDK5/p25, 100 to 1000 nM; in the experiment with MV4-11, under 1000 nM; on CDK1/Cyclin B it was over 1000 nM. Also, at CDK7/Cyclin H/MNAT1 (read-out: CDK7 enzymatic activity (IC50 range)), the 50% inhibitory concentration (IC50) was under 100 nM. The “CDK1/CDK7: Selectivity of CDK7 inhibition over CDK1 inhibition” value at CDK7/Cyclin H/MNAT1 (CDK7 over CDK1) is on record as “A (A=greater than 200 fold)”. The “CDK2/CDK7: Selectivity of CDK7 inhibition over CDK2 inhibition” value at CDK7/Cyclin H/MNAT1 (CDK7 over CDK2) was “A (A=greater than 200 fold)”. In addition, the “CDK5/CDK7: Selectivity of CDK7 inhibition over CDK5 inhibition” value on CDK7/Cyclin H/MNAT1 (CDK7 over CDK5) is given as “A (A=greater than 200 fold)”.
